Source: ChEMBL document CHEMBL1150021, “Alkyl ether analogs of the FK-506 related, immunosuppressive macrolide L-683,590 (ascomycin)” (Bioorg Med Chem Lett, 1994)

Biological target: Peptidyl-prolyl cis-trans isomerase FKBP1A (Homo sapiens, UniProt P62942)
Assay: Ability to bind the major cystolic receptor FK506 binding protein 12 by using competitive binding assay
Settings: not given

Peptidyl-prolyl cis-trans isomerase FKBP1A, sequence (P62942 whole entry): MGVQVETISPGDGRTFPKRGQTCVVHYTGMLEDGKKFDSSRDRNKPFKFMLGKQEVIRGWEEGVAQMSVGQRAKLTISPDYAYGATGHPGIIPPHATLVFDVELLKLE

Row | EC50 [nM] | SMILES
1 | 23 | CC[C@@H]1/C=C(\C)C[C@H](C)C[C@H](OC)[C@H]2O[C@@](O)(C(=O)C(=O)N3CCCC[C@H]3C(=O)O[C@H](/C(C)=C/[C@@H]3CC[C@@H](OC/C=C/c4ccc(Br)cc4)[C@H](OC)C3)[C@H](C)[C@@H](O)CC1=O)[C@H](C)C[C@@H]2OC
2 | 20.5 | CC[C@@H]1/C=C(\C)C[C@H](C)C[C@H](OC)[C@H]2O[C@@](O)(C(=O)C(=O)N3CCCC[C@H]3C(=O)O[C@H](/C(C)=C/[C@@H]3CC[C@@H](OC/C=C/c4ccc(O)cc4)[C@H](OC)C3)[C@H](C)[C@@H](O)CC1=O)[C@H](C)C[C@@H]2OC
3 | 34.3 | CC[C@@H]1/C=C(\C)C[C@H](C)C[C@H](OC)[C@H]2O[C@@](O)(C(=O)C(=O)N3CCCC[C@H]3C(=O)O[C@H](/C(C)=C/[C@@H]3CC[C@@H](OC/C=C/c4cccc([N+](=O)[O-])c4)[C@H](OC)C3)[C@H](C)[C@@H](O)CC1=O)[C@H](C)C[C@@H]2OC
4 | 1.6 | CC[C@@H]1/C=C(\C)C[C@H](C)C[C@H](OC)[C@H]2O[C@@](O)(C(=O)C(=O)N3CCCC[C@H]3C(=O)O[C@H](/C(C)=C/[C@@H]3CC[C@@H](O)[C@H](OC)C3)[C@H](C)[C@@H](O)CC1=O)[C@H](C)C[C@@H]2OC [ASCOMYCIN]

Test system: T-cell
Assay: In vitro evaluation for immunosuppressive activity against proliferation of antigen stimulated murine splenic T cells
Format: functional, cell-based
Settings: Mus musculus

Row | SMILES | IC50 [nM]
5 | CC[C@@H]1/C=C(\C)C[C@H](C)C[C@H](OC)[C@H]2O[C@@](O)(C(=O)C(=O)N3CCCC[C@H]3C(=O)O[C@H](/C(C)=C/[C@@H]3CC[C@@H](OCc4ccco4)[C@H](OC)C3)[C@H](C)[C@@H](O)CC1=O)[C@H](C)C[C@@H]2OC | 13.9
6 | C/C=C(C)/C=C/CO[C@@H]1CC[C@@H](/C=C(\C)[C@H]2OC(=O)[C@@H]3CCCCN3C(=O)C(=O)[C@]3(O)O[C@H]([C@@H](OC)C[C@@H](C)C/C(C)=C/[C@@H](CC)C(=O)C[C@H](O)[C@H]2C)[C@@H](OC)C[C@H]3C)C[C@H]1OC | 6.9
7 | CC[C@@H]1/C=C(\C)C[C@H](C)C[C@H](OC)[C@H]2O[C@@](O)(C(=O)C(=O)N3CCCC[C@H]3C(=O)O[C@H](/C(C)=C/[C@@H]3CC[C@@H](OC/C=C/c4cccc(F)c4)[C@H](OC)C3)[C@H](C)[C@@H](O)CC1=O)[C@H](C)C[C@@H]2OC | 2.5
8 | CC[C@@H]1/C=C(\C)C[C@H](C)C[C@H](OC)[C@H]2O[C@@](O)(C(=O)C(=O)N3CCCC[C@H]3C(=O)O[C@H](/C(C)=C/[C@@H]3CC[C@@H](OC/C=C/c4ccc(Br)cc4)[C@H](OC)C3)[C@H](C)[C@@H](O)CC1=O)[C@H](C)C[C@@H]2OC | 14.5
9 | CC[C@@H]1/C=C(\C)C[C@H](C)C[C@H](OC)[C@H]2O[C@@](O)(C(=O)C(=O)N3CCCC[C@H]3C(=O)O[C@H](/C(C)=C/[C@@H]3CC[C@@H](OCCCc4ccccc4)[C@H](OC)C3)[C@H](C)[C@@H](O)CC1=O)[C@H](C)C[C@@H]2OC | 3.5
10 | CC[C@@H]1/C=C(\C)C[C@H](C)C[C@H](OC)[C@H]2O[C@@](O)(C(=O)C(=O)N3CCCC[C@H]3C(=O)O[C@H](/C(C)=C/[C@@H]3CC[C@@H](OC/C=C/c4ccc(OC)cc4)[C@H](OC)C3)[C@H](C)[C@@H](O)CC1=O)[C@H](C)C[C@@H]2OC | 3.8
11 | CC[C@@H]1/C=C(\C)C[C@H](C)C[C@H](OC)[C@H]2O[C@@](O)(C(=O)C(=O)N3CCCC[C@H]3C(=O)O[C@H](/C(C)=C/[C@@H]3CC[C@@H](OC/C=C/c4cc(F)cc(F)c4)[C@H](OC)C3)[C@H](C)[C@@H](O)CC1=O)[C@H](C)C[C@@H]2OC | 3.9
12 | CC[C@@H]1/C=C(\C)C[C@H](C)C[C@H](OC)[C@H]2O[C@@](O)(C(=O)C(=O)N3CCCC[C@H]3C(=O)O[C@H](/C(C)=C/[C@@H]3CC[C@@H](OCc4ccccc4)[C@H](OC)C3)[C@H](C)[C@@H](O)CC1=O)[C@H](C)C[C@@H]2OC | 3
13 | CC#CCO[C@@H]1CC[C@@H](/C=C(\C)[C@H]2OC(=O)[C@@H]3CCCCN3C(=O)C(=O)[C@]3(O)O[C@H]([C@@H](OC)C[C@@H](C)C/C(C)=C/[C@@H](CC)C(=O)C[C@H](O)[C@H]2C)[C@@H](OC)C[C@H]3C)C[C@H]1OC | 6.1
14 | CC[C@@H]1/C=C(\C)C[C@H](C)C[C@H](OC)[C@H]2O[C@@](O)(C(=O)C(=O)N3CCCC[C@H]3C(=O)O[C@H](/C(C)=C/[C@@H]3CC[C@@H](OCc4cccs4)[C@H](OC)C3)[C@H](C)[C@@H](O)CC1=O)[C@H](C)C[C@@H]2OC | 7.1
15 | CC[C@@H]1/C=C(\C)C[C@H](C)C[C@H](OC)[C@H]2O[C@@](O)(C(=O)C(=O)N3CCCC[C@H]3C(=O)O[C@H](/C(C)=C/[C@@H]3CC[C@@H](OC(C)C)[C@H](OC)C3)[C@H](C)[C@@H](O)CC1=O)[C@H](C)C[C@@H]2OC | 12.5
16 | CC[C@@H]1/C=C(\C)C[C@H](C)C[C@H](OC)[C@H]2O[C@@](O)(C(=O)C(=O)N3CCCC[C@H]3C(=O)O[C@H](/C(C)=C/[C@@H]3CC[C@@H](OC(C)c4ccccc4)[C@H](OC)C3)[C@H](C)[C@@H](O)CC1=O)[C@H](C)C[C@@H]2OC (stereo not given in full) | 11.3
17 | CC[C@@H]1/C=C(\C)C[C@H](C)C[C@H](OC)[C@H]2O[C@@](O)(C(=O)C(=O)N3CCCC[C@H]3C(=O)O[C@H](/C(C)=C/[C@@H]3CC[C@@H](OC/C=C/C4CCCCC4)[C@H](OC)C3)[C@H](C)[C@@H](O)CC1=O)[C@H](C)C[C@@H]2OC | 5.5
18 | CC[C@@H]1/C=C(\C)C[C@H](C)C[C@H](OC)[C@H]2O[C@@](O)(C(=O)C(=O)N3CCCC[C@H]3C(=O)O[C@H](/C(C)=C/[C@@H]3CC[C@@H](OC/C=C/c4cccc([N+](=O)[O-])c4)[C@H](OC)C3)[C@H](C)[C@@H](O)CC1=O)[C@H](C)C[C@@H]2OC | 1.9
19 | CC[C@@H]1/C=C(\C)C[C@H](C)C[C@H](OC)[C@H]2O[C@@](O)(C(=O)C(=O)N3CCCC[C@H]3C(=O)O[C@H](/C(C)=C/[C@@H]3CC[C@@H](OC/C=C/c4cccc(O)c4)[C@H](OC)C3)[C@H](C)[C@@H](O)CC1=O)[C@H](C)C[C@@H]2OC | 0.8
20 | CC[C@@H]1/C=C(\C)C[C@H](C)C[C@H](OC)[C@H]2O[C@@](O)(C(=O)C(=O)N3CCCC[C@H]3C(=O)O[C@H](/C(C)=C/[C@@H]3CC[C@@H](OCC#Cc4ccccc4)[C@H](OC)C3)[C@H](C)[C@@H](O)CC1=O)[C@H](C)C[C@@H]2OC | 2.7
21 | CC[C@@H]1/C=C(\C)C[C@H](C)C[C@H](OC)[C@H]2O[C@@](O)(C(=O)C(=O)N3CCCC[C@H]3C(=O)O[C@H](/C(C)=C/[C@@H]3CC[C@@H](OC/C=C/C(C)(C)C)[C@H](OC)C3)[C@H](C)[C@@H](O)CC1=O)[C@H](C)C[C@@H]2OC | 14.2
22 | CC[C@@H]1/C=C(\C)C[C@H](C)C[C@H](OC)[C@H]2O[C@@](O)(C(=O)C(=O)N3CCCC[C@H]3C(=O)O[C@H](/C(C)=C/[C@@H]3CC[C@@H](OC/C(C)=C/c4ccccc4)[C@H](OC)C3)[C@H](C)[C@@H](O)CC1=O)[C@H](C)C[C@@H]2OC | 5.5
23 | CC[C@@H]1/C=C(\C)C[C@H](C)C[C@H](OC)[C@H]2O[C@@](O)(C(=O)C(=O)N3CCCC[C@H]3C(=O)O[C@H](/C(C)=C/[C@@H]3CC[C@@H](OC/C=C/c4ccc(F)cc4)[C@H](OC)C3)[C@H](C)[C@@H](O)CC1=O)[C@H](C)C[C@@H]2OC | 5.5
24 | CC[C@@H]1/C=C(\C)C[C@H](C)C[C@H](OC)[C@H]2O[C@@](O)(C(=O)C(=O)N3CCCC[C@H]3C(=O)O[C@H](/C(C)=C/[C@@H]3CC[C@@H](OC/C=C/c4ccc(Cl)cc4)[C@H](OC)C3)[C@H](C)[C@@H](O)CC1=O)[C@H](C)C[C@@H]2OC | 15.8
25 | C=CC[C@@H]1/C=C(\C)C[C@H](C)C[C@H](OC)[C@H]2O[C@@](O)(C(=O)C(=O)N3CCCC[C@H]3C(=O)O[C@H](/C(C)=C/[C@@H]3CC[C@@H](O)[C@H](OC)C3)[C@H](C)[C@@H](O)CC1=O)[C@H](C)C[C@@H]2OC [TACROLIMUS ANHYDROUS] | 0.29
